Article PMC10201364 (MicrobiologyOpen, 2023)

How the values were obtained:
[1] = target: Ah‐BarR (P ah‐barR promoter, mKate2 reporter) (Acidianus hospitalis, UniProt F4B5V3); assay: cell-based
Protocol: (§1) Reporter gene assays were performed as previously described (Bernauw et al., [2022]). pPRC6 and pITC variants (Table 1) were co‐transformed in E. coli MG1655 chemical competent cells using heat shock transformation. Transformant colonies of the Ah‐BarR biosensor strains were picked to inoculate wells of a transparent 96‐well plate (Greiner Bio‐One), each well filled with 200 µL of MOPS EZ Rich Defined medium (Teknova), prepared without the addition of the 5X EZ Supplement, after which the plate was incubated overnight in a ThermoMixer C (Eppendorf) at 30°C and 300 rpm. Next, a black 96‐well plate was filled with a naringenin solution prepared in ethanol (250 mg/L or 2.5 g/L), after which a Breathe‐Easy sealing membrane (Sigma‐Aldrich) was applied and the ethanol was evaporated in a ThermoMixer C (Eppendorf) at 75°C. […] Finally, the plate was sealed again using a Breathe‐Easy sealing membrane (Sigma‐Aldrich).
(§2) Plates were incubated at 30°C and 300 rpm for 40 h in a Synergy H1 microplate reader (BioTek) with measurements of OD600 and fluorescence (excitation wavelength: 588 nm, emission wavelength: 633 nm) being taken every 20 min. The gain was set to 140 for all measurements, except for the measurements with the amino acids (pools and separately), where the gain was set to 150. […] In addition, wells solely containing medium were measured as well to correct for the background signal.
(§3) Reporter expression was analyzed at t = 30 h, when all cultures had reached the stationary phase, by taking into account three subsequent time points (t–1, t, t+1). The corrected FL/OD600 value was calculated for each replicate (n = 4) as follows: FL/ODcor=FLt−1−FLmed,t−1/ODt−1−ODmed,t−1+FLt−FLmed,t/ODt−ODmed,t+FLt+1−FLmed,t+1/ODt+1−ODmed,t+1/3
(§4) Response curves were fitted to a Hill function of the shape P(M)=b+aM^n/θ^n+M^nforaβ−alanine−inducible responseb+aθ^n/θ^n+M^nforaβ−alanine−repressible response according to a previously published procedure (Landry et al., [2018]) with minor adaptations. […] Briefly, lmfit 1.1.0 was used to fit all replicates of a response curve to the appropriate Hill function using the Levenberg‐Marquardt algorithm (Moré, [1978]; Newville et al., [2016]). […] The dynamic range was estimated as μ=a/b .

[2] = target: Ah‐BarR T134A (P ah‐barR promoter, mKate2 reporter) (Acidianus hospitalis, UniProt F4B5V3, T134A); assay: cell-based
Protocol: as §1, §2, §3, §4

[3] = target: Ah‐BarR M103A (P ah‐barR promoter, mKate2 reporter) (Acidianus hospitalis, UniProt F4B5V3, M103A); assay: cell-based
Protocol: as §1, §2, §3, §4

[4] = target: Ah‐BarR M103N (P ah‐barR promoter, mKate2 reporter) (Acidianus hospitalis, UniProt F4B5V3, M103N); assay: cell-based; type: cell-based
Protocol: as §1, §2, §3, §4

[5] = target: Ah‐BarR M103T (P ah‐barR promoter, mKate2 reporter) (Acidianus hospitalis, UniProt F4B5V3, M103T); assay: cell-based; type: cell-based
Protocol: as §1, §2, §3, §4

[6] = target: Ah‐BarR trunc (P ah‐barR promoter, mKate2 reporter) (Acidianus hospitalis, UniProt F4B5V3)
Protocol: as §1, §2, §3, §4

[7] = system: 274‐bp DNA fragment harboring the entire barR‐aminotransferase intergenic region (WT promoter); assay: EMSA of Ah‐BarR with WT promoter fragment; set-up: species or system Acidianus hospitalis; settings: 5 mM β‐alanine added to binding reactions
Protocol: Electrophoretic mobility shift assays (EMSAs) were performed as described (Charlier & Bervoets, [2022]). Either the forward or the reverse primer was radioactively labeled, using fresh γ‐^32P‐ATP (Perkin Elmer) and T4 polynucleotide kinase (Thermo Scientific). Labeled promoter fragments were obtained by PCR using Taq DNA polymerase (Promega), a ^32P‐labeled primer, a non‐labeled second primer, and a plasmid template (Table A4). Labeled fragments were purified by acrylamide gel electrophoresis. EMSA reactions were prepared in protein‐DNA binding buffer (20 mM Tris‐HCl pH 8.0, 50 mM NaCl, 0.4 mM EDTA, 0.1 mM DTT, 1 mM MgCl2, 12.5% glycerol) with each reaction containing 1 µL (20 cps/µL) of ^32P‐labeled promoter fragment, an excess (25 µg/mL) of non‐labeled, nonspecific competitor DNA (sonicated salmon sperm DNA, Invitrogen), and purified Ah‐BarR protein. Amino acids were added to the reactions in the mentioned concentrations. […] Scans of the gels were analyzed by densitometry using ImageJ (Schneider et al., [2012]), after which GraphPad PRISM (version 9.3.1 for Windows, GraphPad Software, www.graphpad.com) was used to perform Hill curve fitting using nonlinear regression for saturated binding (one site, specific binding), and to determine apparent equilibrium dissociation constants K D.

[8] = target: Ah‐BarR (S. acidocaldarius promoter P sa‐at, mKate2 reporter) (Acidianus hospitalis, UniProt F4B5V3); assay: cell-based
Protocol: as §1, §2, §3, §4
(§5) Additional in vivo experiments were performed on strains BS3 and BS4 using the S. acidocaldarius promoters P sa‐barR and P sa‐at , respectively, in combination with Ah‐BarR.

[9] = target: Ah‐BarR (S. acidocaldarius promoter P sa‐barR, mKate2 reporter) (Acidianus hospitalis, UniProt F4B5V3); assay: cell-based
Protocol: as §1, §2, §3, §4, §5

[10] = BS1, β‐alanine 0–10 mM, 20 mg/L naringenin, t = 30 h, Hill fit
[11] = BS1 T134A, β‐alanine 0–10 mM, 20 mg/L naringenin, Hill fit
[12] = BS1 M103A, β‐alanine 0–10 mM, 20 mg/L naringenin, Hill fit
[13] = BS1 M103T, β‐alanine 0–10 mM, 20 mg/L naringenin, Hill fit
[14] = BS4, β‐alanine 0–10 mM, 20 mg/L naringenin, Hill fit
[15] = BS3, β‐alanine 0–10 mM, 20 mg/L naringenin, Hill fit

Ah‐BarR (S. acidocaldarius promoter P sa‐barR, mKate2 reporter), sequence (F4B5V3 1-165): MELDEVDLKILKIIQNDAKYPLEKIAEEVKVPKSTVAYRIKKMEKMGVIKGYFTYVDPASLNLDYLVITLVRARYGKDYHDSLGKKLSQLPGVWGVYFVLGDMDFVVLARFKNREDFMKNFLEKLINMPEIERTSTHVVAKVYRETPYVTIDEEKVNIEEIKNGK
Ah‐BarR (P ah‐barR promoter, mKate2 reporter), sequence (F4B5V3 1-165): as above
Ah‐BarR (S. acidocaldarius promoter P sa‐at, mKate2 reporter), sequence (F4B5V3 1-165): as above
Ah‐BarR M103T (P ah‐barR promoter, mKate2 reporter), sequence (F4B5V3 entry or part of it M103T): as the sequence (F4B5V3 1-165) above, with M103T counted along it
Ah‐BarR M103N (P ah‐barR promoter, mKate2 reporter), sequence (F4B5V3 entry or part of it M103N): as the sequence (F4B5V3 1-165) above, with M103N counted along it
Ah‐BarR T134A (P ah‐barR promoter, mKate2 reporter), sequence (F4B5V3 entry or part of it T134A): as the sequence (F4B5V3 1-165) above, with T134A counted along it
Ah‐BarR M103A (P ah‐barR promoter, mKate2 reporter), sequence (F4B5V3 entry or part of it M103A): as the sequence (F4B5V3 1-165) above, with M103A counted along it
Ah‐BarR trunc (P ah‐barR promoter, mKate2 reporter), sequence (F4B5V3 entry or part of it): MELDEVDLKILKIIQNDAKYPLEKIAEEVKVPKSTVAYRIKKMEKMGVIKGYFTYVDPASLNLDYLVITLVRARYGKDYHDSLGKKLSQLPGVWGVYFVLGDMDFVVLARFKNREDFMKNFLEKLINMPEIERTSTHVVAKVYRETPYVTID

Which EC50 [1] does the source give for NCCC(=O)O [β‐alanine] here?
Its EC50 is 370 µM.

And the Hill coefficient n ([1]; BS1, 20 mg/L naringenin)?
The Hill coefficient n was 1.77.

And the “Dynamic range µ” value ([1]; BS1, µ = a/b)?
The value was 3.07.

And the “Basal fluorescence output b” value [1, 10]?
The value was 2226 RFU.

What about the “Maximum fluorescence increase a” value [1, 10] of the same molecule?
The value was 6828 RFU.

And the “ligand specificity: effect on transcriptional regulation of barR and at” value ([1]; BS1 and BS2 strains, 20 mg/L naringenin, individual amino acids of pools 1 and 7 at 3/5 mM)?
Its value is “specifically ascribed to β‐alanine”.

And the EC50 [2]?
Its EC50 is 1610 µM.

And the Hill coefficient n ([2]; BS1 T134A, 20 mg/L naringenin)?
Its Hill coefficient n is 1.68.

And the “Dynamic range µ” value ([2]; BS1 T134A, µ = a/b)?
The value was 4.06.

What about the “Basal fluorescence output b” value [2, 11] of the same molecule?
The value was 2145 RFU.

What about the “Maximum fluorescence increase a” value [2, 11] of the same molecule?
Its value is 8703 RFU.

And the EC50 [3]?
Its EC50 is 1350 µM.

And the Hill coefficient n ([3]; BS1 M103A, 20 mg/L naringenin)?
Its Hill coefficient n is 1.88.

And the “Dynamic range µ” value ([3]; BS1 M103A, µ = a/b)?
The value was 3.25.

What about the “Basal fluorescence output b” value [3, 12] of the same molecule?
Its value is 2289 RFU.

And the “Maximum fluorescence increase a” value [3, 12]?
Its value is 7429 RFU.

What about the “Basal fluorescence output b” value [4] of the same molecule?
The value was 2281 RFU.

And the “Dynamic range µ” value [4]?
The value was 4.11.

And the EC50 [4]?
The EC50 was 460 µM.

What about the Hill coefficient n [4] of the same molecule?
The Hill coefficient n was 1.48.

And the “Maximum fluorescence increase a” value [4]?
The value was 9373 RFU.

What about the EC50 [5] of the same molecule?
Its EC50 is 320 µM.

And the Hill coefficient n ([5]; BS1 M103T, 20 mg/L naringenin)?
Its Hill coefficient n is 1.36.

What about the “Dynamic range µ” value ([5]; BS1 M103T, µ = a/b) of the same molecule?
The value was 2.49.

And the “Basal fluorescence output b” value [5, 13]?
Its value is 3184 RFU.

What about the “Maximum fluorescence increase a” value [5, 13] of the same molecule?
The value was 7915 RFU.

What about the “Basal fluorescence output b” value [6] of the same molecule?
The value was 2485 RFU.

What about the “Dynamic range µ” value [6] of the same molecule?
Its value is 3.56.

And the Hill coefficient n [6]?
Its Hill coefficient n is 1.60.

What about the “Maximum fluorescence increase a” value [6] of the same molecule?
Its value is 8840 RFU.

What about the EC50 ([6]; read-out: Threshold θ, BS1 trunc, 20 mg/L naringenin) of the same molecule?
Its EC50 is 260 µM.

What about the “effect of β‐alanine on formation of Ah‐BarR‐DNA complexes” value [7] of the same molecule?
The value was “did not significantly alter”.

And the EC50 [8]?
The EC50 was 90 µM.

What about the Hill coefficient n ([8]; BS4, 20 mg/L naringenin) of the same molecule?
The Hill coefficient n was 2.99.

What about the “Dynamic range µ” value ([8]; BS4, µ = a/b) of the same molecule?
The value was 5.15.

What about the “Basal fluorescence output b” value [8, 14] of the same molecule?
The value was 13,873 RFU.

And the “Maximum fluorescence increase a” value [8, 14]?
Its value is 71,426 RFU.

What about the EC50 [9] of the same molecule?
Its EC50 is 100 µM.

What about the Hill coefficient n ([9]; BS3, 20 mg/L naringenin) of the same molecule?
Its Hill coefficient n is 2.00.

What about the “Dynamic range µ” value ([9]; BS3, µ = a/b) of the same molecule?
The value was 1.17.

And the “Basal fluorescence output b” value [9, 15]?
Its value is 4595 RFU.

What about the “Maximum fluorescence increase a” value [9, 15] of the same molecule?
Its value is 5355 RFU.
